From publication PMC8048383 (Cancer cell, 2021)

What was measured:
[1] = test system: TOP1 DNA-protein crosslinks (TOP1-DPCs) in DMS114 cells; experiment: in vivo complex of enzyme; format: cell-based, human
SCLC cells = experiment: MIPE 5.0 library combination screen with indotecan, pairs ranked by ExcessHSA; format: cell-based, human; conditions: in combination with indotecan (LMP400)
[2] = test system: replication protein A (RPA) S33 phosphorylation; experiment: Western blot of RPA phosphorylation; format: cell-based, human
DMS114 cells = experiment: flow cytometry EdU incorporation and cell cycle analysis; format: cell-based, human; conditions: M6620 with topotecan; forced progression to G2/M phase
pCHK1 (Ser345) = experiment: pharmacodynamics of pCHK1; format: in vivo, mice; conditions: M6620 10, 20 and 30 mg/kg i.v. with 50 mg/kg irinotecan i.p.; 1-24 h
[3] = plasma pharmacokinetics in trial patients; format: in vivo, human; conditions: cycle 1, suggesting absence of drug-drug interactions
[4] = test system: DMS114 and H209 SCLC cell models; experiment: replication; format: cell-based, human
[5] = test system: platinum-resistant SCLC patients; conditions: second-line lurbinectedin; ref Trigo et al., 2020; cited from earlier work
[6] = test system: patients with platinum-resistant SCLC; conditions: topotecan monotherapy, ref Horita et al., 2015; cited from earlier work

With `O=c1cc(-c2cccc3c2Sc2ccccc2S3)oc(N2CCOCC2)c1` [KU55933] the “potentiation of topotecan-generated TOP1-DPCs” value ([1]; 1 μM pretreatment 4 h before topotecan 1 μM 2 h) was “neither an ATM inhibitor (KU55933) nor a DNA-PKcs inhibitor (VS984) potentiated topotecan-generated TOP1-DPCs”.
With `CNCc1ccc(-c2cc(-c3nc(-c4ccc(S(=O)(=O)C(C)C)cc4)cnc3N)on2)cc1` [M6620, berzosertib] the “rank of TOP1 inhibitor-drug pair by ExcessHSA” value (SCLC cells) was 32, the “topotecan-induced RPA32 phosphorylation” value ([2]; M6620 treatment) was “reduced the topotecan-induced RPA32 phosphorylation” and the “S-phase arrest induced by TOP1 inhibition” value (DMS114 cells) was “abrogated the S-phase arrest induced by TOP1 inhibition”. The “increase in TOP1-DPCs” value ([1]; M6620 pre-treatment (1 μM, 4 h), after 2-hour treatment with topotecan (1 μM)) was 1.4 fold, the “irinotecan induced pCHK1 (Ser345)” value (pCHK1 (Ser345)) was “blocks irinotecan induced pCHK1 in a dose- and time-dependent manner” and the “plasma pharmacokinetics in combination” value [3] was “appeared consistent with the individual agents”. For the same compound, the topotecan-induced replication block ([4]; M6620 added to topotecan) was “abrogated the replication block”.
With `CC(C)c1cc(-c2n[nH]c(=O)n2-c2ccc3c(ccn3C)c2)c(O)cc1O` [ganetespib] the “rank of TOP1 inhibitor-drug pair by ExcessHSA” value (SCLC cells) was 5.
For `COc1ccc2[nH]c3c(c2c1)CCN[C@]31CS[C@@H]2c3c(OC(C)=O)c(C)c4c(c3[C@H](COC1=O)N1[C@@H]2[C@H]2c3c(cc(C)c(OC)c3O)C[C@@H]([C@@H]1O)N2C)OCO4` [lurbinectedin], the “confirmed ORR” value [5] is given as 22.2%, the “median DOR” value [5] is given as 4.7 months and the “patients with confirmed responses with DOR>6 months” value [5] is given as 11.7%.
For `COc1cccc(OCCCN)c1-c1cc(Nc2cnc(C#N)cn2)n[nH]1` [prexasertib], the “rank of TOP1 inhibitor-drug pair by ExcessHSA” value (SCLC cells) was 9.
For `CC[C@@]1(O)C(=O)OCc2c1cc1n(c2=O)Cc2cc3c(CN(C)C)c(O)ccc3nc2-1` [topotecan], the “phosphorylation of RPA at S33” value ([2]; DMS114 cells, following exposure to topotecan) is given as “rapid phosphorylation of replication protein A (RPA) at S33”, the “responses (proportion of patients)” value [6] is given as “approximately 5%” and the “plasma pharmacokinetics in combination” value [3] is given as “appeared consistent with the individual agents”. The replication velocity ([4]; within 30 minutes of topotecan treatment) was “significantly reduced replication velocity”.
